The record followed here is ChEMBL document CHEMBL3045072, “Anti-tyrosinase, antioxidant and antimicrobial activities of hydroxycinnamoylamides” (Med Chem Res, 2013).

Data set [1] has as its system Radical scavenging activity. In words: Antioxidant activity assessed as DPPH radical scavenging activity at 3.6 mM after 20 min. The class given is functional. Background: The DPPH test is a chemical assay of radical scavenging.
Data set [2] relates to Radical scavenging activity. In words: Antioxidant activity assessed as DPPH radical scavenging activity at 3.6 mM after 10 min. In kind it is functional.
In data set [3] the test system is Radical scavenging activity. In words: Antioxidant activity assessed as DPPH radical scavenging activity at 1.8 mM after 20 min. The class given is functional.
The subject of data set [4] is Radical scavenging activity. In words: Antioxidant activity assessed as DPPH radical scavenging activity at 0.9 mM after 20 min. The class given is functional.
In data set [5] the test system is Radical scavenging activity. In words: Antioxidant activity assessed as DPPH radical scavenging activity at 1.8 mM after 10 min. The class given is functional.
Data set [6] deals with Radical scavenging activity. Briefly: Antioxidant activity assessed as DPPH radical scavenging activity at 0.9 mM after 10 min. In kind it is functional.
The target in data set [7] is T1, Tyrosinase (Agaricus bisporus) (UniProt O42713).
T1 sequence (whole entry): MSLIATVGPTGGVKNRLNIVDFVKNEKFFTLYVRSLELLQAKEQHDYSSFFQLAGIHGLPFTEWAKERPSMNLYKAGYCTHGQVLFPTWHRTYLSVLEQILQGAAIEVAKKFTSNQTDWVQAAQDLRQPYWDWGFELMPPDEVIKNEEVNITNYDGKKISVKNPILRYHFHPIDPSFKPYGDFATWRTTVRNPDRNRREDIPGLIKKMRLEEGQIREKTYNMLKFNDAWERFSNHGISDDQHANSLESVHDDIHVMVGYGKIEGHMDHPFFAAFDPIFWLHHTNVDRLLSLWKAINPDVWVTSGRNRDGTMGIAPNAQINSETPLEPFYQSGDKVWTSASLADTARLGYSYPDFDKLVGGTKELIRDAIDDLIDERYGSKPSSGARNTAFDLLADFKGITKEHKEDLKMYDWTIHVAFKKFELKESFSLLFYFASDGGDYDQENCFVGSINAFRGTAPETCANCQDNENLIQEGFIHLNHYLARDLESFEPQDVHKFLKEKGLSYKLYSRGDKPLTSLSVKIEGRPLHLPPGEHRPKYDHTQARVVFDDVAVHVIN
In words: Inhibition of monophenolase activity of mushroom tyrosinase using L-tyrosine as substrate after 30 min by dopachrome method.

Data set [8] can be described thus: Inhibition of autoxidation of pure triacylglycerols of sunflower oil at 1 mM by iodometric analysis. In kind it is toxicity. The settings on record: 1000 µM.

Activity calls are given as the source filed them. No cut-off for these calls is given here.

For the compound `COC(=O)[C@H](Cc1ccc(O)cc1)NC(=O)/C=C/c1ccc(O)cc1`, the Activity in data set [1] was 1.88%; in data set [2], 1.44%; in data set [3] it was 1.42%; in data set [4], 0.71%; in data set [5], 1.04%; in data set [6], 0.64%. In addition, the inhibition result in data set [7] is “Active”.
As for `O=C(/C=C/c1ccc(O)cc1)NCCc1ccc(O)cc1`, in data set [7], the inhibition result was “Active”.
For the compound `O=C(/C=C/c1ccc(O)cc1)NCCc1ccc(O)c(O)c1`, the inhibition result in data set [7] is “Active”.
With `COC(=O)[C@H](Cc1ccc(O)c(O)c1)NC(=O)/C=C/c1ccc(O)cc1`, the “inhibition (INH)” value in data set [8] is listed as “Active”. Further, the Activity in data set [1] amounted to 67.1%; in data set [2], 64.4%; in data set [3], 34.8%; in data set [4], 19.1%; in data set [5], 33.3%; in data set [6], 18%. Further, the inhibition entry in data set [7] was “Active”.
Turning to `Oc1ccc(O)cc1`, the inhibition result in data set [7] is “Active”.
As for `O=C(O)/C=C/c1ccc(O)cc1` [COUMARIC ACID], in data set [8], the “inhibition (INH)” value is recorded as “Not Active”. Moreover, the Activity was 6.1% in data set [1]; 4.5% in data set [2]; 4.7% in data set [3]; 2.9% in data set [4]; 3.7% in data set [5]; 2.1% in data set [6]. The inhibition entry in data set [7] was “Active”.
